Laboratory results as given in PubChem BioAssay AID248 (DTP/NCI, 2004).
Where “and” joins values, the source holds several entries; their conditions need not be identical. Identical values can stand only once. Toxic doses and inconclusive results are not listed.

Test system: L1210 leukemia ip in BDF1 mice, survival T/C
Assay: NCI In Vivo Anticancer Drug Screen. Data for tumor model L1210 Leukemia (intraperitoneal) in B6D2F1 (BDF1) mice
Conditions: endpoint: mean survival time, higher = longer survival
Procedure, shortened: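 Read-out is survival time, reported as the treated-group measurement over the vehicle-control measurement.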

## O=C(O)c1[nH]c(=O)[nH]c(=O)c1F
dose: 0.09 mg/kg/injection, schedule: Q01DX005 (oral), vehicle: saline
  T/C: 112 % of control
dose: 0.18 mg/kg/injection, schedule: Q01DX005 (oral), vehicle: saline
  T/C: 108 % of control
dose: 0.18 mg/kg/injection, schedule: Q01DX015 (ip), vehicle: saline
  T/C: 115 % of control
dose: 0.37 mg/kg/injection, schedule: Q01DX005 (oral), vehicle: saline
  T/C: 115 % of control
dose: 0.37 mg/kg/injection, schedule: Q01DX015 (ip), vehicle: saline
  T/C: 157 % of control
dose: 0.63 mg/kg/injection, schedule: Q01DX015 (ip), vehicle: carboxymethylcellulose (CMC)
  T/C: 105 % of control
dose: 0.75 mg/kg/injection, schedule: Q01DX005 (oral), vehicle: saline
  T/C: 120 % of control
dose: 0.75 mg/kg/injection, schedule: Q01DX015 (ip), vehicle: saline
  T/C: 188 % of control
dose: 0.75 mg/kg/injection, schedule: Q01DX015 (oral), vehicle: saline
  T/C: 115 % of control
dose: 0.75 mg/kg/injection, schedule: Q## X003 (oral), vehicle: saline
  T/C: 101 % of control
dose: 0.75 mg/kg/injection, schedule: Q## X024 (oral), vehicle: saline
  T/C: 112 % of control
dose: 1.0 mg/kg/injection, schedule: Q01DX009 (ip), vehicle: saline with Tween-80
  T/C: 114 % of control
dose: 1.0 mg/kg/injection, schedule: Q01DX009 (ip), vehicle: saline
  T/C: 113 % of control
dose: 1.25 mg/kg/injection, schedule: Q01DX009 (ip), vehicle: saline
  T/C: 97 % of control and 111 % of control
dose: 1.25 mg/kg/injection, schedule: Q01DX015 (ip), vehicle: carboxymethylcellulose (CMC)
  T/C: 111 % of control
dose: 1.3 mg/kg/injection, schedule: Q## X008 (oral), vehicle: saline
  T/C: 111 % of control
dose: 1.5 mg/kg/injection, schedule: Q01DX006 (iv), vehicle: saline
  T/C: 112 % of control
dose: 1.5 mg/kg/injection, schedule: Q01DX009 (oral), vehicle: saline
  T/C: 114 % of control
dose: 1.5 mg/kg/injection, schedule: Q01DX015 (im), vehicle: saline
  T/C: 117 % of control
dose: 1.5 mg/kg/injection, schedule: Q01DX015 (sc), vehicle: saline
  T/C: 120 % of control
dose: 1.5 mg/kg/injection, schedule: Q## X003 (oral), vehicle: saline
  T/C: 104 % of control
dose: 1.5 mg/kg/injection, schedule: Q## X024 (oral), vehicle: saline
  T/C: 113 % of control
dose: 2.5 mg/kg/injection, schedule: Q01DX009 (ip), vehicle: saline
  T/C: 117 % of control
dose: 2.5 mg/kg/injection, schedule: Q01DX015 (ip), vehicle: carboxymethylcellulose (CMC)
  T/C: 122 % of control
dose: 2.6 mg/kg/injection, schedule: Q## X008 (oral), vehicle: saline
  T/C: 114 % of control
dose: 3.0 mg/kg/injection, schedule: Q01DX005 (oral), vehicle: saline
  T/C: 157 % of control
dose: 3.0 mg/kg/injection, schedule: Q01DX006 (iv), vehicle: saline
  T/C: 120 % of control
dose: 3.0 mg/kg/injection, schedule: Q01DX009 (ip), vehicle: saline
  T/C: 165 % of control
dose: 3.0 mg/kg/injection, schedule: Q01DX015 (ip), vehicle: saline
  T/C: 191 % of control
dose: 3.0 mg/kg/injection, schedule: Q01DX015 (oral), vehicle: saline
  T/C: 157 % of control
dose: 3.0 mg/kg/injection, schedule: Q## X003 (oral), vehicle: saline
  T/C: 103 % of control
dose: 4.0 mg/kg/injection, schedule: Q01DX009 (ip), vehicle: saline with Tween-80
  T/C: 161 % of control
dose: 4.0 mg/kg/injection, schedule: Q01DX009 (ip), vehicle: saline
  T/C: 165 % of control
dose: 5.0 mg/kg/injection, schedule: Q01DX009 (ip), vehicle: saline
  T/C: 155 % of control
dose: 5.0 mg/kg/injection, schedule: Q01DX015 (ip), vehicle: carboxymethylcellulose (CMC)
  T/C: 155 % of control
dose: 5.0 mg/kg/injection, schedule: Q01DX Z (ip), vehicle: methylcellulose (MC)
  T/C: 119 % of control
dose: 5.2 mg/kg/injection, schedule: Q## X008 (oral), vehicle: saline
  T/C: 119 % of control
dose: 6.0 mg/kg/injection, schedule: Q01DX005 (oral), vehicle: saline
  T/C: 174 % of control
dose: 6.0 mg/kg/injection, schedule: Q01DX006 (iv), vehicle: saline
  T/C: 121 % of control
dose: 6.0 mg/kg/injection, schedule: Q01DX009 (ip), vehicle: saline
  T/C: 211 % of control
dose: 6.0 mg/kg/injection, schedule: Q01DX015 (im), vehicle: saline
  T/C: 179 % of control
dose: 6.0 mg/kg/injection, schedule: Q01DX015 (ip), vehicle: saline
  T/C: 164 % of control
dose: 6.0 mg/kg/injection, schedule: Q01DX015 (oral), vehicle: saline
  T/C: 191 % of control
dose: 6.0 mg/kg/injection, schedule: Q01DX015 (sc), vehicle: saline
  T/C: 182 % of control
dose: 6.0 mg/kg/injection, schedule: Q## X003 (oral), vehicle: saline
  T/C: 113 % of control
dose: 6.0 mg/kg/injection, schedule: Q## X024 (oral), vehicle: saline
  T/C: 157 % of control
dose: 7.0 mg/kg/injection, schedule: Q01DX015 (ip), vehicle: carboxymethylcellulose (CMC)
  T/C: 189 % of control
dose: 8.0 mg/kg/injection, schedule: Q01DX009 (ip), vehicle: saline
  T/C: 188 % of control
dose: 10.0 mg/kg/injection, schedule: Q01DX009 (ip), vehicle: saline
  T/C: 188 % of control and 206 % of control
dose: 10.5 mg/kg/injection, schedule: Q01DX001 (oral), vehicle: saline
  T/C: 111 % of control
dose: 11.0 mg/kg/injection, schedule: Q01DX015 (ip), vehicle: carboxymethylcellulose (CMC)
  T/C: 214 % of control
dose: 11.0 mg/kg/injection, schedule: Q01DX Z (ip), vehicle: methylcellulose (MC)
  T/C: 109 % of control
dose: 12.0 mg/kg/injection, schedule: Q01DX006 (iv), vehicle: saline
  T/C: 153 % of control
dose: 12.0 mg/kg/injection, schedule: Q01DX009 (ip), vehicle: saline
  T/C: 100 % of control and 101 % of control
dose: 12.0 mg/kg/injection, schedule: Q01DX015 (im), vehicle: saline
  T/C: 162 % of control
dose: 12.0 mg/kg/injection, schedule: Q01DX015 (ip), vehicle: saline
  T/C: 155 % of control
dose: 12.0 mg/kg/injection, schedule: Q01DX015 (sc), vehicle: saline
  T/C: 171 % of control
dose: 12.0 mg/kg/injection, schedule: Q## X024 (oral), vehicle: saline
  T/C: 154 % of control
dose: 12.0 mg/kg/injection, schedule: Q## X040 (oral), vehicle: saline
  T/C: 87 % of control
dose: 16.0 mg/kg/injection, schedule: Q01DX009 (ip), vehicle: saline
  T/C: 107 % of control
dose: 16.0 mg/kg/injection, schedule: Q01DX015 (ip), vehicle: carboxymethylcellulose (CMC)
  T/C: 183 % of control
dose: 21.0 mg/kg/injection, schedule: Q01DX001 (oral), vehicle: saline
  T/C: 106 % of control
dose: 24.0 mg/kg/injection, schedule: Q01DX009 (ip), vehicle: saline
  T/C: 110 % of control
dose: 24.0 mg/kg/injection, schedule: Q01DX009 (oral), vehicle: saline
  T/C: 112 % of control
dose: 24.0 mg/kg/injection, schedule: Q01DX015 (im), vehicle: saline
  T/C: 120 % of control
dose: 24.0 mg/kg/injection, schedule: Q01DX015 (ip), vehicle: saline
  T/C: 114 % of control
dose: 24.0 mg/kg/injection, schedule: Q01DX015 (oral), vehicle: saline
  T/C: 104 % of control
dose: 24.0 mg/kg/injection, schedule: Q## X024 (oral), vehicle: saline
  T/C: 156 % of control
dose: 32.0 mg/kg/injection, schedule: Q04DX003 (ip), vehicle: saline
  T/C: 178 % of control
dose: 48.0 mg/kg/injection, schedule: Q01DX006 (iv), vehicle: saline
  T/C: 183 % of control
dose: 48.0 mg/kg/injection, schedule: Q01DX009 (ip), vehicle: saline
  T/C: 88 % of control
dose: 48.0 mg/kg/injection, schedule: Q01DX009 (oral), vehicle: saline
  T/C: 101 % of control
dose: 48.0 mg/kg/injection, schedule: Q01DX015 (im), vehicle: saline
  T/C: 95 % of control and 112 % of control
dose: 48.0 mg/kg/injection, schedule: Q01DX015 (ip), vehicle: carboxymethylcellulose (CMC)
  T/C: 120 % of control
dose: 48.0 mg/kg/injection, schedule: Q01DX015 (ip), vehicle: saline
  T/C: 101 % of control and 114 % of control
dose: 48.0 mg/kg/injection, schedule: Q01DX015 (oral), vehicle: saline
  T/C: 97 % of control
dose: 48.0 mg/kg/injection, schedule: Q01DX015 (sc), vehicle: saline
  T/C: 106 % of control and 108 % of control
dose: 48.0 mg/kg/injection, schedule: Q## X003 (oral), vehicle: saline
  T/C: 158 % of control
dose: 48.0 mg/kg/injection, schedule: Q## X024 (oral), vehicle: saline
  T/C: 109 % of control
dose: 64.0 mg/kg/injection, schedule: Q04DX003 (ip), vehicle: saline
  T/C: 193 % of control
dose: 84.0 mg/kg/injection, schedule: Q01DX001 (oral), vehicle: saline
  T/C: 121 % of control
dose: 96.0 mg/kg/injection, schedule: Q01DX006 (iv), vehicle: saline
  T/C: 106 % of control
dose: 96.0 mg/kg/injection, schedule: Q01DX015 (im), vehicle: saline
  T/C: 86 % of control
dose: 96.0 mg/kg/injection, schedule: Q01DX015 (oral), vehicle: saline
  T/C: 87 % of control
dose: 96.0 mg/kg/injection, schedule: Q## X024 (oral), vehicle: saline
  T/C: 98 % of control
dose: 192.0 mg/kg/injection, schedule: Q01DX006 (iv), vehicle: saline
  T/C: 104 % of control
dose: 192.0 mg/kg/injection, schedule: Q01DX015 (oral), vehicle: saline
  T/C: 87 % of control
dose: 356.0 mg/kg/injection, schedule: Q## X008 (oral), vehicle: saline
  T/C: 111 % of control
dose: 384.0 mg/kg/injection, schedule: Q01DX006 (iv), vehicle: saline
  T/C: 86 % of control
dose: 384.0 mg/kg/injection, schedule: Q## X003 (oral), vehicle: saline
  T/C: 122 % of control
dose: 712.0 mg/kg/injection, schedule: Q01DX001 (oral), vehicle: saline
  T/C: 150 % of control
dose: 768.0 mg/kg/injection, schedule: Q## X003 (oral), vehicle: saline
  T/C: 108 % of control
dose: 1000.0 mg/kg/injection, schedule: Q01DX001 (oral), vehicle: saline
  T/C: 160 % of control
dose: 1000.0 mg/kg/injection, schedule: Q## X003 (oral), vehicle: saline
  T/C: 103 % of control
